Test results published in ChEMBL document CHEMBL1147774, “Synthesis of N-benzylated-2-aminoquinolines as ligands for the Tec SH3 domain” (Bioorg Med Chem Lett, 2006).

Target: T1, Tyrosine-protein kinase Tec (Homo sapiens, UniProt P42680)
T1 sequence (P42680 whole entry): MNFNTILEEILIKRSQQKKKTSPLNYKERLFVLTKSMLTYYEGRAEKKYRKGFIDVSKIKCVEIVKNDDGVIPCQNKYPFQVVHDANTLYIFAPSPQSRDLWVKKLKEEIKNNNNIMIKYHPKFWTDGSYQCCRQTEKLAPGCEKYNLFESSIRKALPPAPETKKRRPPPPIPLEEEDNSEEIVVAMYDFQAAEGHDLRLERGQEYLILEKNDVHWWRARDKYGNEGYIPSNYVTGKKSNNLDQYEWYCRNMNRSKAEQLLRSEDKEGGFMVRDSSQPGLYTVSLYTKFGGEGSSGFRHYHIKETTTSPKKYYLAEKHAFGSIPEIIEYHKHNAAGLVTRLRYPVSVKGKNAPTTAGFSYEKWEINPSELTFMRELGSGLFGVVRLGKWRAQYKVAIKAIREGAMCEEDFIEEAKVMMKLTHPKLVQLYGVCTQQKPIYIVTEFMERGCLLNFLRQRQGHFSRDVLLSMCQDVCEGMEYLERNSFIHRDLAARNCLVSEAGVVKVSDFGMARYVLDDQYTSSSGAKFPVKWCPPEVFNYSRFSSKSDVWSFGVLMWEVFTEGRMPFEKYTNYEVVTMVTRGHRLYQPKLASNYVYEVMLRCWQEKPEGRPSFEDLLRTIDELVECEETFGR
Experiment: Binding affinity to Tec SH3 domain

Row | Structure (SMILES) | Kd [µM]
1 | c1c[nH]c(CNc2ccc3ccccc3n2)c1 | 285
2 | Fc1cccc(CNc2ccc3ccccc3n2)c1 | 177
3 | c1ccc(CNc2ccc3ccccc3n2)cc1 | 193
4 | Oc1ccc(CNc2ccc3ccccc3n2)cc1 | 292
5 | Fc1ccccc1CNc1ccc2ccccc2n1 | 208
6 | Oc1cccc(CNc2ccc3ccccc3n2)c1 | 234
